Measurements taken from PubChem BioAssay AID1963972 (Molecular Pharmacology Branch, DTP, NCI, 2024).

Test system: 945468-187-T-J2-PDC spheroids viability
Test: Anticancer human tumor 945468-187-T-J2-PDC patient-derived rectal carcinoma cell line growth inhibition [PI3K]
Details: spheroids with HUVEC and MSC; for IC50: curve of first compound; for viability, T/C: stronger effect = lower value
In short: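 Stroma-containing spheroids: tumor line, pooled-donor HUVEC, hMSC. Treatments: targeted agents with PI3K inhibitors. Dosing: clinically relevant, half-log spacing, 10 microM ceiling without known Cmax. Read-out: cell viability.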

[1] = second compound 0.0316 µM, first compound 0.0316 µM
[2] = second compound 0.0316 µM, first compound 0.1 µM
[3] = second compound 0.0316 µM, first compound 0.316 µM
[4] = second compound 0.0316 µM, first compound 1 µM
[5] = second compound 0.0316 µM, first compound 3.16 µM
[6] = second compound 0.0316 µM, first compound 10 µM
[7] = second compound 0.1 µM, first compound 0.0316 µM
[8] = second compound 0.1 µM, first compound 0.1 µM
[9] = second compound 0.1 µM, first compound 0.316 µM
[10] = second compound 0.1 µM, first compound 1 µM
[11] = second compound 0.1 µM, first compound 3.16 µM
[12] = second compound 0.1 µM, first compound 10 µM
[13] = second compound 0.316 µM, first compound 0.0316 µM
[14] = second compound 0.316 µM, first compound 0.1 µM
[15] = second compound 0.316 µM, first compound 0.316 µM
[16] = second compound 0.316 µM, first compound 1 µM
[17] = second compound 0.316 µM, first compound 3.16 µM
[18] = second compound 0.316 µM, first compound 10 µM
[19] = second compound 1 µM, first compound 0.0316 µM
[20] = second compound 1 µM, first compound 0.1 µM
[21] = second compound 1 µM, first compound 0.316 µM
[22] = second compound 1 µM, first compound 1 µM
[23] = second compound 1 µM, first compound 3.16 µM
[24] = second compound 1 µM, first compound 10 µM
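Note: spheroids exposed to compounds for seven days before reading.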

For `CC(Cn1ccc(-c2ccc(C#N)c(Cl)c2)n1)NC(=O)c1cc(C(C)O)[nH]n1` (centres undefined) + CC(Nc1ccc2c(c1)OCCn1cc(N3C(=O)OCC3C(F)F)nc1-2)C(N)=O, the IC50 (second compound 0.00316 µM) was > 10 µM, the IC50 (second compound 0.01 µM) was > 10 µM and the IC50 (second compound 0.0316 µM) was > 10 µM. For the same molecule, the IC50 (second compound 0.1 µM) was > 10 µM, the IC50 (second compound 0.316 µM) was > 10 µM and the IC50 (second compound 1 µM) was > 10 µM. It also gave a viability, T/C (second compound 0.00316 µM, first compound 0.0316 µM) of 98.9%, a viability, T/C (second compound 0.00316 µM, first compound 0.1 µM) of 105% and a viability, T/C (second compound 0.00316 µM, first compound 0.316 µM) of 107%. It also gave a viability, T/C (second compound 0.00316 µM, first compound 1 µM) of 75.7%, a viability, T/C (second compound 0.00316 µM, first compound 3.16 µM) of 106% and a viability, T/C (second compound 0.00316 µM, first compound 10 µM) of 110%. The viability, T/C (second compound 0.01 µM, first compound 0.0316 µM) was 108%, the viability, T/C (second compound 0.01 µM, first compound 0.1 µM) was 85.8% and the viability, T/C (second compound 0.01 µM, first compound 0.316 µM) was 90.5%. For the same molecule, the viability, T/C (second compound 0.01 µM, first compound 1 µM) was 96.2%, the viability, T/C (second compound 0.01 µM, first compound 3.16 µM) was 111% and the viability, T/C (second compound 0.01 µM, first compound 10 µM) was 93.6%. It also gave a viability, T/C [1] of 100%, a viability, T/C [2] of 82% and a viability, T/C [3] of 88%. It also gave a viability, T/C [4] of 92%, a viability, T/C [5] of 91.1% and a viability, T/C [6] of 103%. The viability, T/C [7] was 86.2%, the viability, T/C [8] was 82% and the viability, T/C [9] was 99.1%. For the same molecule, the viability, T/C [10] was 80.8%, the viability, T/C [11] was 101% and the viability, T/C [12] was 81.7%. The viability, T/C [13] was 85.2%, the viability, T/C [14] was 73.2% and the viability, T/C [15] was 95.2%. The viability, T/C [16] was 91.4%, the viability, T/C [17] was 82.7% and the viability, T/C [18] was 82.8%. It also gave a viability, T/C [19] of 76.2%, a viability, T/C [20] of 74.8% and a viability, T/C [21] of 68.9%. It also gave a viability, T/C [22] of 63.6%, a viability, T/C [23] of 72.3% and a viability, T/C [24] of 71.4%.
In the case of `Cn1nccc1Nc1nccc(-c2ccn(C(CO)c3ccc(Cl)c(F)c3)c(=O)c2)n1` (centres undefined) + CC(Nc1ncnc2nc[nH]c12)c1cc2cccc(Cl)c2c(=O)n1-c1ccccc1, the IC50 (second compound 0.0316 µM) is reported as > 10 µM, the IC50 (second compound 0.1 µM) is reported as > 10 µM and the IC50 (second compound 0.316 µM) is reported as > 10 µM. For the same molecule, the IC50 (second compound 1 µM) was > 10 µM, the IC50 (second compound 3.16 µM) was > 10 µM and the IC50 (second compound 10 µM) was > 10 µM. The viability, T/C [1] was 107%, the viability, T/C [2] was 91.4% and the viability, T/C [3] was 92%. For the same molecule, the viability, T/C [4] was 115%, the viability, T/C [5] was 101% and the viability, T/C [6] was 78.5%. For the same molecule, the viability, T/C [7] was 76.1%, the viability, T/C [8] was 86.5% and the viability, T/C [9] was 102%. For the same molecule, the viability, T/C [10] was 120%, the viability, T/C [11] was 101% and the viability, T/C [12] was 72.7%. The viability, T/C [13] was 95.2%, the viability, T/C [14] was 85.6% and the viability, T/C [15] was 83.1%. It also gave a viability, T/C [16] of 98.7%, a viability, T/C [17] of 84.2% and a viability, T/C [18] of 71.1%. It also gave a viability, T/C [19] of 99.3%, a viability, T/C [20] of 100% and a viability, T/C [21] of 89.4%. It also gave a viability, T/C [22] of 103%, a viability, T/C [23] of 96.2% and a viability, T/C [24] of 75.7%. It also gave a viability, T/C (second compound 3.16 µM, first compound 0.0316 µM) of 88.2%, a viability, T/C (second compound 3.16 µM, first compound 0.1 µM) of 80.8% and a viability, T/C (second compound 3.16 µM, first compound 0.316 µM) of 83.6%. The viability, T/C (second compound 3.16 µM, first compound 1 µM) was 125%, the viability, T/C (second compound 3.16 µM, first compound 3.16 µM) was 140% and the viability, T/C (second compound 3.16 µM, first compound 10 µM) was 68.4%. The viability, T/C (second compound 10 µM, first compound 0.0316 µM) was 135%, the viability, T/C (second compound 10 µM, first compound 0.1 µM) was 115% and the viability, T/C (second compound 10 µM, first compound 0.316 µM) was 109%. For the same molecule, the viability, T/C (second compound 10 µM, first compound 1 µM) was 110%, the viability, T/C (second compound 10 µM, first compound 3.16 µM) was 91.9% and the viability, T/C (second compound 10 µM, first compound 10 µM) was 70.5%.
